Results: article PMC12193579, “Pro-Apoptotic Activity of 1-(4,5,6,7-Tetrabromo-1H-benzimidazol-1-yl)propan-2-one, an Intracellular Inhibitor of PIM-1 Kinase in Acute Lymphoblastic Leukemia and Breast Cancer Cells” (International Journal of Molecular Sciences, 2025)

Columns and labels:
[1] = tested on: MCF-7 (breast carcinoma); experiment: MTT-based viability assay, MCF-7; format: cell-based, human
Description: (§1) 3. The cytotoxicity of the newly obtained inhibitors, i.e., 1, 2, and 4 was tested towards four cell lines, i.e., CCRF-CEM (acute lymphoblastic leukemia ALL), MCF-7 (breast carcinoma), MDA-MB-231 (triple negative breast carcinoma), and Vero (Cercopithecus aethiops kidney).
(§2) The CCRF-CEM (acute lymphoblastic leukemia, ALL) and MDA-MB-231 (triple-negative breast adenocarcinoma) cell lines were obtained from the European Collection of Authenticated Cell Cultures (ECACC), while the MCF-7 (hormone-dependent breast adenocarcinoma) and Vero (Cercopithecus aethiops kidney) cell lines were purchased from the American Type Culture Collection (ATCC, Manassas, VA, USA). CCRF-CEM cells were maintained in RPMI-1640 medium, whereas MCF-7 and MDA-MB-231 cells were cultured in DMEM (Sigma-Aldrich Chemical Company, St. Louis, MO, USA). Vero cells were cultured in minimum essential medium eagle (MEM; Sigma-Aldrich). All media were supplemented with 10% fetal bovine serum (FBS), 2 mM L-glutamine, and antibiotics (100 U/mL penicillin and 100 µg/mL streptomycin) (Sigma-Aldrich). Cells were grown in 75-cm^2 culture flasks (Googlab Scientific, Rakocin, Poland) in a humidified atmosphere containing 5% CO2 at 37 °C. All experiments were performed using exponentially growing cultures. Stock solutions of the test compounds were prepared in DMSO and stored at –80 °C for up to one month.
(§3) Following incubation with the tested compounds, the MTT assay was carried out as previously described. Optical density was measured at 570 nm using a BioTek microplate reader (Winooski, VT, USA). All measurements were performed in at least three independent biological replicates.

[2] = tested on: MDA-MB-231 (breast carcinoma); experiment: MTT-based viability assay, MDA-MB-231; format: cell-based, human
Description: as §1, §2, §3

[3] = IC50 for Vero/IC50 for cancer cells

IC50 ([1]; Homo sapiens, MCF7, MTT, 48 h, read-out: IC50 [µM] MCF-7): 17.1 ± 2.07 µM
IC50 ([2]; Homo sapiens, MDA-MB-231, MTT, 48 h, read-out: IC50 [µM] MDA-MB-231): 21.2 ± 0.76 µM
SMILES: CC(=O)Cn1cnc2c(Br)c(Br)c(Br)c(Br)c21 [compound 1, 1-(4,5,6,7-tetrabromo-1H-benzimidazol-1-yl)propan-2-one]
SI (selectivity index) MCF-7 [1, 3]: 1.18
SI (selectivity index) MDA-MB-231 [2, 3]: 0.95
